Tested on: MDA-MB-231 breast cancer cells
Assay: Cell killing by 6-MP released from hydrogel versus 6-MP at same concentration, WST-1 assay
Type: cell-based
Settings: 24 h treatment, same 6-MP concentration; FIG. 12
Protocol: The apoptotic effect resulting from the release of anticancer agents was confirmed by comparing the effects of anticancer agents released due to chemical bond cleavage during photoirradiation with that of anticancer agents at the same concentration.
The three-dimensional hydrogels prepared according to Examples 1 to 3 to have a diameter of 8 mm and a height of 2 mm were stored together with 1 mL of PBS at 37° C. and 100 RPM. MDA-MB-231 breast cancer cells were inoculated at a density of 4×10^4 cells per well on a 48-well plate prepared with DMEM supplemented with 10% FBS and 1% penicillin/streptomycin and cultured at 37° C. for one day. After removal of the existing medium, cancer cells were treated with 50 μL of fresh medium and 150 μL of PBS containing released 6-MP, and incubated at 37° C. for 24 h. For the WST-1 assay, the cells were washed with PBS, treated with EZ-Cytox solution in each experimental group, incubated at 37° C. for 2 hours, and then measured by absorbance at 450 nm to confirm the cell apoptosis effect.

Compound	breast cancer cells died / killed
S=c1nc[nH]c2nc[nH]c12	70%
Sc1ncnc2nc[nH]c12 [6-MP, 6-mercaptopurine]	21%

— patent US20250032676A1, “3D HYDROGEL COMPOSITE HAVING CANCER CELL APOPTOTIC EFFECT AND PREPARATION METHOD THEREOF” (DONGGUK UNIVERSITY INDUSTRY-ACADEMIC COOPERATION FOUNDATION, priority 2022, published 2025)
